Reference: patent US20030232801A1, “Identification of compounds for the treatment or prevention of proliferative diseases” (priority 2001, published 2003)

Legend:
[1] = test system: MT-4 cells (adult human T-cell leukemia cells); test: Cellular toxicity, MTS cell viability, MT-4 cells; assay type: cell-based; settings: Homo sapiens, MT4, 120 h, 5 day, MTS viability
Experimental: (§1) 6D-2 cells (MCF-7 human breast cancer cells stably transfected with luciferase linked to the 5′ and 3′UTRs of human HER2) were added to 96-well plates at 7500 cells per well in 200 μL medium and incubated for 24 hours at 100% humidity, 5% CO2, and 37° C. Compounds were diluted from DMSO stock solutions into medium and were added at various concentrations. The 6D-2 cells were incubated for 16 hours at which time the volume of medium in each well was reduced to 100 μL using a plate washer. 20 μL of MTS cell viability reagent (Promega, Madison, Wis.) was then added to each well, and the plates were incubated for 1-4 hours. A plate containing wells with 100 μL medium plus MTS reagent was prepared to determine the background reading. The plates were read on the Wallac 2 plate reader (PerkinElmer Life Science, Boston, Mass.) at 490 nm. Percent viability was calculated as (O.D. of compound treated cells−background O.D.)/(O.D. of DMSO treated cells−background O.D.)×100. MT-4 cells (adult human T-cell leukemia cells) were plated at 1.5×10^5 cells per well in 200 μL medium and incubated for at least one hour before the addition of compounds. The cells were incubated for 5 days at 100% humidity, 5% CO2, and 37° C. Cell viability was determined as described for 6D-2 cells.
(§2) Compounds of the invention containing a pyrrolidine substituent were tested for toxicity to cancerous and non-cancerous cells. 6D-2 cellular activity is representative of potency as an antitumor agent. MT-4 cellular activity is representative of general toxicity. A high IC50 for MT-4 cells and a low IC50 for 6D-2 cells is indicative of a compound of potential therapeutic use in treating or preventing proliferative diseases, such as cancer.

[2] = test system: primary peripheral blood mononuclear cells (PBMCs); test: Viability of PBMCs on administration of MES 51151 (FIG. 3); assay type: cell-based; settings: concentration of 10 μM
Experimental: (§3) FIG. 3 is a graph of the effect of administration of MES 51151 on the viability of 6D-2 cells and PBMCs.
(§4) Toxicity of the transfected cells increased with increased concentration of MES 51151 administered to the cells (FIG. 3, showing the percent viable 6D-2 cells compared to control cells). MES 51151 was administered to primary peripheral blood mononuclear cells (PBMCs) to test for its effect on cell toxicity. MES 51151 was not toxic to the PBMCs (FIG. 3, showing the percent viable PBMCs compared to control cells). The EC50 of MES 51151 when administered to the 6D-2 cancer cell line was less than 100 nM, yet MES 51151 was not toxic to PBMCs even when administered at a concentration of 10 μM. Therefore, the therapeutic index of MES 51151 is at least 100, and may be even higher. […] Thus, this compound may potentially be employed for the treatment or prevention of proliferative diseases, including cancer.

[3] = Cellular toxicity, MTS cell viability, 6D-2 cells; assay type: cell-based, human; settings: Homo sapiens, MCF7, MTS viability
Experimental: as §1, §2

6D-2 cancer cell line = test: Viability of 6D-2 cells on administration of MES 51151 (FIG. 3); assay type: cell-based, human
Experimental: as §3, §4

[4] = test system: luciferase reporter operatively linked to HER2 5′ and 3′UTRs; test: HER2 UTR/luciferase reporter screening assay in stably transfected MCF7 (6D-2) cells; assay type: cell-based, human; settings: HER2 5′ and 3′UTR/luciferase reporter
Experimental: The HER2 UTR/reporter nucleic acid stably transfected cell system described above was used to identify compounds that either increased or decreased the level of HER2 translation efficiency. Small molecules from a library of candidate compounds (MES library, Message Pharmaceuticals, Malvern, Pa., containing, for example, small molecules from a commercially available Nanoscale Combinatorial Synthesis Inc. (Mountain View, Calif.) library) were administered to 6D-2 cells containing the stably transfected luciferase reporter nucleic acid sequence operatively linked to HER2 5′ and 3′UTRs to identify compounds that modulate HER2 translation efficiency. Each candidate compound was administered at a concentration of 10 μM.
After 16 hours of exposure to the compound, the level of luciferase protein activity was measured in candidate compound-treated cells containing the luciferase construct only, or in cells containing the luciferase/UTRs that were not treated with the candidate compound, or are treated with the candidate compound vehicle only (control cells), and compared to activity levels in candidate compound-treated cells containing the luciferase construct with the UTRs (test cells). […]

CC(=O)Nc1ccc(NC2=C(N3CCCC3)C(=O)c3ccccc3C2=O)cc1 [Example 2]
IC50 [1]: 0.08 µM | Toxicity to PBMCs [2]: not toxic | IC50 [3]: 0.25 µM | Therapeutic index (6D-2 cancer cell line; 6D-2 EC50 versus non-toxic concentration in PBMCs): at least 100 | EC50 (6D-2 cancer cell line; Homo sapiens, 6D-2 cells, toxicity (percent viable cells compared to control), read-out: EC50 when administered to the 6D-2 cancer cell line): < 0.1 µM | Luciferase activity [4]: reduced luciferase activity through toxicity
